From patent US20150306182A1, “FAT LOSS COMPOSITION” (priority 2012, published 2015)
Where “and” joins values, the source holds several entries; their conditions need not be identical. Equal entries are not always repeated. Entries after “also recorded” stand apart in the source; their conditions may differ. No end group written: not given here.

Columns and labels:
[1] = Cloprostenol sodium alone in male and female subjects (Example 1); format: in vivo, human
Experimental: Cloprostenol sodium was taken by eight male and two female subjects at a dosage of 120 micrograms for every 2501b (113 kg) body weight. The dosage was calculated pro rata based on the weight of the subject involved.
With the female subjects the process was identical. However, the dosage was reduced to 15 μg per shot for menstrual reasons.

[2] = minimal dose of 40 μg; cited from earlier work
[3] = acute administration in humans, case reports; cited from earlier work
[4] = test system: ob/ob mice; settings: cited from earlier work
[5] = test system: isolated adipose tissue from obese humans; settings: cited from earlier work
[6] = test system: adipose tissue; settings: cited from earlier work
[7] = test system: cell proliferation; settings: unlike Human Growth Hormone; cited from earlier work
[8] = target: T1, hGH receptor (Homo sapiens, UniProt P10912); settings: unlike Human Growth Hormone; cited from earlier work
T1 sequence (P10912 19-638): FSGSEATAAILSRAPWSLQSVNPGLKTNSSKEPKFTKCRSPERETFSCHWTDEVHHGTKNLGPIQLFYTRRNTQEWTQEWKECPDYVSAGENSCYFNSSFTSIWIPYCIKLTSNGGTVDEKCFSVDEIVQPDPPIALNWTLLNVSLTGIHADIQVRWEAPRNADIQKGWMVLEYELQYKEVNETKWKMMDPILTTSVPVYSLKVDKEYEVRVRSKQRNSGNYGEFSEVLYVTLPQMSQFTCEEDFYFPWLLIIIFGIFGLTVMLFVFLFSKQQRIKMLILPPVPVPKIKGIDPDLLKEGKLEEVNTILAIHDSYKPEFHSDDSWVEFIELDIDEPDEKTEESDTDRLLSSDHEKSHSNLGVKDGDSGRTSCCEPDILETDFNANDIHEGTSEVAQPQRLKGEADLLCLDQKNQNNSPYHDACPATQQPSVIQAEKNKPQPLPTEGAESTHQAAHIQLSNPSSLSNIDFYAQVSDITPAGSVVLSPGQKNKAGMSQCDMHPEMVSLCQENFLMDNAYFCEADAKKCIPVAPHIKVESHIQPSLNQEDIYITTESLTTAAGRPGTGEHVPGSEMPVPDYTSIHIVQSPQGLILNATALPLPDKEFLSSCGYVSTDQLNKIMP

[9] = test system: isolated adipose tissue from obese rodents; settings: cited from earlier work
[10] = cited from earlier work
[11] = Four week trial of amino acids 176-191 of human growth hormone alone (Example 2); format: in vivo; settings: for Bowel Habits (per day): one value per test subject
From the text: Ten subjects were given a daily subcutaneous dose of 2 International Units (IU) of amino acids 176-191 of human growth hormone for a four week trial period.

[12] = ten subjects, daily subcutaneous 2 IU, four weeks

## O=C(O)CCC/C=C\CC1C(O)CC(O)C1/C=C/C(O)COc1cccc(Cl)c1 (centres unmarked) [Cloprostenol sodium, cloprostenol sodium]
[1]; all recipients
  Willingness to continue use: None of the recipients wished to continue to use this product for more than three days
[1]; females, 15 μg per shot
  Side effects and willingness to continue in females: No female subjects wished to continue using this product due to severe stomach cramps
[1]; males, shots of 30 μg at a time
  Side effects in males: very severe stomach cramps and extensive bowel movements
[1]; same dosing, one comment per test subject
  Comments (stopping of use): Stopped after 2 days; also recorded: Stopped as cramp and pain; also recorded: Stopped after 1st day; also recorded: Stopped after 3 days

## O=C(O)CCC/C=C\C[C@@H]1C(/C=C/[C@@H](O)COc2cccc(Cl)c2)[C@H](O)C[C@@H]1O (stereo partly drawn) [Cloprostenol, (5Z)-7-[(1R,3R,5S)-2-[(E,3R)-4-(3-chlorophenoxy)-3-hydroxybut-1-enyl]-3,5-dihydroxycyclopentyl]hept-5-enoic acid]
[2]
  Bowel evacuation after dosing: within ten minutes users will have to evacuate their bowels

## O=[N+]([O-])c1ccc(O)c([N+](=O)[O-])c1 [DNP, 2,4-Dinitrophenol]
[3]
  Lethal acute administration: 20 to 50 mg/kg

## HGH Fragment 177-191: Human growth hormone fragment of the cited studies; shares amino acid sequence with Human Growth Hormone (LRIVQCRSVEGSCGF; ends and bridges not checked; cysteine pairing not given here; UniProt P01241 203-217, looked up, fragment)
[4]
  Energy expenditure, glucose and fat oxidation: increasing energy expenditure and glucose and fat oxidation
[5]
  In vitro lipogenic activity: decreased lipogenic activity
  In vitro lipolytic activity: increased in vitro lipolytic activity
[6]; dosage of 500 μg
  Lipolytic activity in adipose tissue: increase lipolytic activity in adipose tissue
[6]; in vivo
  Impact on insulin sensitivity: no negative impact on insulin sensitivity
[7]
  Induction of cell proliferation: nor does it induce cell proliferation
[8]
  Competition for the hGH receptor: does not compete for the hGH receptor
[9]
  In vitro lipogenic activity: decreased lipogenic activity
  In vitro lipolytic activity: increased in vitro lipolytic activity

## YLRIVQCRSVEGSCGF (cysteine pairing not given here) [HGH fragment 176-191, freely available commercially]
[10]; clinical trial and experimental users
  Side effects: No side effects have been reported
[10]; humans
  Stimulation of the metabolism of body fat: highly successful at stimulating the metabolism of body fat in humans
[10]; in three months, oral dosing
  Average overall weight loss (fat): 3 kg
[10]; lowest of 6 doses, oral, 3 months
  Most effective daily dose: 1 mg
[10]; three months, more than subjects not taking the peptide
  Weight loss relative to test subjects not taking the peptide: 300%
[11]; Test subject 1, Week 4, start 17%
  Body Fat: 15%
[11]; Test subject 1, Week 4, start 98 kg
  Weight: (96 kg)
[11]; Test subject 1, Week 4, start 217 lb
  Weight: 212 lb
[11]; Test subject 2, Week 4, start 31%
  Body Fat: 28%
[11]; Test subject 2, Week 4, start 92 kg
  Weight: (89 kg)
[11]; Test subject 2, Week 4, start 203 lb
  Weight: 196 lb
[11]; Test subject 3, Week 4, start 18%
  Body Fat: 15%
[11]; Test subject 3, Week 4, start 108 kg
  Weight: (106 kg)
[11]; Test subject 3, Week 4, start 238 lb
  Weight: 233 lb
[11]; Test subject 4, Week 4, start 10%
  Body Fat: 10%
[11]; Test subject 4, Week 4, start 92 kg
  Weight: (92 kg)
[11]; Test subject 4, Week 4, start 203 lb
  Weight: 203 lb
[11]; Test subject 5, Week 4, start 25%
  Body Fat: 24%
[11]; Test subject 5, Week 4, start 105 kg
  Weight: (103 kg)
[11]; Test subject 5, Week 4, start 231 lb
  Weight: 226 lb
[11]; Test subject 6, Week 4, start 32%
  Body Fat: 30%
[11]; Test subject 6, Week 4, start 68 kg
  Weight: (67 kg)
[11]; Test subject 6, Week 4, start 150 lb
  Weight: 147 lb
[11]; Test subject 7, Week 4, start 30%
  Body Fat: 28%
[11]; Test subject 7, Week 4, start 79 kg
  Weight: (76 kg)
[11]; Test subject 7, Week 4, start 173 lb
  Weight: 168 lb
[11]; Test subject 8, Week 4, start 34%
  Body Fat: 30%
[11]; Test subject 8, Week 4, start 108 kg
  Weight: (103 kg)
[11]; Test subject 8, Week 4, start 238 lb
  Weight: 226 lb
[11]; Test subject 9, Week 4, start 10%
  Body Fat: 10%
[11]; Test subject 9, Week 4, start 79 kg
  Weight: (79 kg)
[11]; Test subject 9, Week 4, start 175 lb
  Weight: 175 lb
[11]; Test subject 10, Week 4, start 21%
  Body Fat: 18%
[11]; Test subject 10, Week 4, start 86 kg
  Weight: (83 kg)
[11]; Test subject 10, Week 4, start 189 lb
  Weight: 182 lb
[11]; Week 1, daily subcutaneous 2 IU
  Bowel Habits (per day): 2 per day and 1 per day
[11]; Week 2, daily subcutaneous 2 IU
  Bowel Habits (per day): 2 per day and 1 per day
[11]; Week 3, daily subcutaneous 2 IU
  Bowel Habits (per day): 1 per day and 2 per day
[11]; Week 4, daily subcutaneous 2 IU
  Bowel Habits (per day): 1 per day and 2 per day
[11]; [12]
  Completion of trial: All subjects completed the four week trial
  Reduction in body fat and weight loss: no real reduction in body fat or meaningful weight loss
